Assay results reported in paper PMC5564600 (Oncotarget, 2017).
Read-outs that look alike come from different tables or passages of the source.

Tests used:
Test in all cases: biochemical
Type in all cases: binding
[1] = molecular target: T1, panel of 442 kinases (Homo sapiens, UniProt Q9Y243); settings: AKT3; for remaining activity at 1 µM: read-out: % of control at 1 µM
T1 construct: purchased Ambit Biosciences (scanMAXX KINOMEscan)

[2] = molecular target: T2, panel of 442 kinases (Homo sapiens, UniProt P37023); settings: ACVRL1; for remaining activity at 1 µM: read-out: % of control at 1 µM
T2 construct: purchased Ambit Biosciences (scanMAXX KINOMEscan)

[3] = molecular target: T3, panel of 442 kinases (Homo sapiens, UniProt P0C264); settings: kinase SgK110; for remaining activity at 1 µM: read-out: SgK110 (% of control at 1 µM)
T3 construct: purchased Ambit Biosciences (scanMAXX KINOMEscan)
T3 sequence (P0C264 1-359): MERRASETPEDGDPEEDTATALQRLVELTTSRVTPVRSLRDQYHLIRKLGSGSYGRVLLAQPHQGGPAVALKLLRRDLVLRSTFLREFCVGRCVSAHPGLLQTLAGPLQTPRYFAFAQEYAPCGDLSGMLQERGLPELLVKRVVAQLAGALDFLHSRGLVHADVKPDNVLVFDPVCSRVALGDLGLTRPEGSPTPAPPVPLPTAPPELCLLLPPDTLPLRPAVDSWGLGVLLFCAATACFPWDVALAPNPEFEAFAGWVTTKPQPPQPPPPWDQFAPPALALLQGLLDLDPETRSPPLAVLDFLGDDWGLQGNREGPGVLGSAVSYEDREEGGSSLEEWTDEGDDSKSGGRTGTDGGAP

[4] = molecular target: T4, panel of 442 kinases (Homo sapiens, UniProt Q13557); settings: CAMK2D; for remaining activity at 1 µM: read-out: % of control at 1 µM
T4 construct: purchased Ambit Biosciences (scanMAXX KINOMEscan)
T4 sequence (Q13557 whole entry): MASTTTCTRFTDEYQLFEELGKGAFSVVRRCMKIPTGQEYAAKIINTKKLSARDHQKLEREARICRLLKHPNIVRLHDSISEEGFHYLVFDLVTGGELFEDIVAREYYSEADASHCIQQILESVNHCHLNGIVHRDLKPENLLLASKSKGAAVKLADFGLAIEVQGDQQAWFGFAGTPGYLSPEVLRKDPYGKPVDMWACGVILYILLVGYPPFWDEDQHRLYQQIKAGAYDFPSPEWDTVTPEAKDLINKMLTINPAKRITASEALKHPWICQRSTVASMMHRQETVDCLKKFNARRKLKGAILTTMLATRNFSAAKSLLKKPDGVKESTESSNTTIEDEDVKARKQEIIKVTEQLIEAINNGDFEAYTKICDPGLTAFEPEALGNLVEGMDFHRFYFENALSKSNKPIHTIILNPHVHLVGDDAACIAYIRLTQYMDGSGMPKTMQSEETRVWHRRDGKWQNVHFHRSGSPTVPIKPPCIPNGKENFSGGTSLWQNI

[5] = molecular target: T5, panel of 442 kinases (Homo sapiens, UniProt P80192); settings: kinase MLK1; for remaining activity at 1 µM: read-out: % of control at 1 µM
T5 construct: purchased Ambit Biosciences (scanMAXX KINOMEscan)
T5 sequence (P80192 whole entry): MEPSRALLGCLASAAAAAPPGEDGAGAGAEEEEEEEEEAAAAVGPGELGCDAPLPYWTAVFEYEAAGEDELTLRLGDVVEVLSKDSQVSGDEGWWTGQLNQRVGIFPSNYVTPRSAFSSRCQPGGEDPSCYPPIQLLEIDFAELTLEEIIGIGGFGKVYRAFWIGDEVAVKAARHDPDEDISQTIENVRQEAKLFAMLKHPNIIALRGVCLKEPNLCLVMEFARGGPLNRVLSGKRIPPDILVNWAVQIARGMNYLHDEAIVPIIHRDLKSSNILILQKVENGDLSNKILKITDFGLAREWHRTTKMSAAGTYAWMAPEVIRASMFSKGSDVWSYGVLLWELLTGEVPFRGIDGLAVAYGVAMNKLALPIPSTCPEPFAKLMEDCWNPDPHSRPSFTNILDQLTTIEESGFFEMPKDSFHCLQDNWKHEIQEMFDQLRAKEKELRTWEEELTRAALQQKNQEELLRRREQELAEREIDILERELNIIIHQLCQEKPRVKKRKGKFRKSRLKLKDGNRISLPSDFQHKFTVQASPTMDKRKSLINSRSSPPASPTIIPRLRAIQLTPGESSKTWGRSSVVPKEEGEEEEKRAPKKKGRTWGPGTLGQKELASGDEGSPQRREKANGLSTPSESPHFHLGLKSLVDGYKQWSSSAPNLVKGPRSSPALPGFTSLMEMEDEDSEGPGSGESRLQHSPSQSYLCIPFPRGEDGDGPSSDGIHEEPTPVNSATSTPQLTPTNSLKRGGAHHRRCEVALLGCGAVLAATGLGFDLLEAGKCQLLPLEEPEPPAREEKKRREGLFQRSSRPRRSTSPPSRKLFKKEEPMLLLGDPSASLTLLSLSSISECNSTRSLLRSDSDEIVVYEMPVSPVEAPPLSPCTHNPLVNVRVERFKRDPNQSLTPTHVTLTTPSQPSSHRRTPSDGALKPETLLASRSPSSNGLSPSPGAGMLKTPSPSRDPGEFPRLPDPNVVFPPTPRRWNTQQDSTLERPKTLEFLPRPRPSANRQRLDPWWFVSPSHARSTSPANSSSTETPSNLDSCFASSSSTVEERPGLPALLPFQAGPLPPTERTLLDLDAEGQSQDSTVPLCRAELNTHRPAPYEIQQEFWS

[6] = molecular target: T6, panel of 442 kinases (Homo sapiens, UniProt P57078); settings: kinase RIPK4; for remaining activity at 1 µM: read-out: RIPK4 (% of control at 1 µM)
T6 construct: purchased Ambit Biosciences (scanMAXX KINOMEscan)
T6 sequence (P57078 1-832): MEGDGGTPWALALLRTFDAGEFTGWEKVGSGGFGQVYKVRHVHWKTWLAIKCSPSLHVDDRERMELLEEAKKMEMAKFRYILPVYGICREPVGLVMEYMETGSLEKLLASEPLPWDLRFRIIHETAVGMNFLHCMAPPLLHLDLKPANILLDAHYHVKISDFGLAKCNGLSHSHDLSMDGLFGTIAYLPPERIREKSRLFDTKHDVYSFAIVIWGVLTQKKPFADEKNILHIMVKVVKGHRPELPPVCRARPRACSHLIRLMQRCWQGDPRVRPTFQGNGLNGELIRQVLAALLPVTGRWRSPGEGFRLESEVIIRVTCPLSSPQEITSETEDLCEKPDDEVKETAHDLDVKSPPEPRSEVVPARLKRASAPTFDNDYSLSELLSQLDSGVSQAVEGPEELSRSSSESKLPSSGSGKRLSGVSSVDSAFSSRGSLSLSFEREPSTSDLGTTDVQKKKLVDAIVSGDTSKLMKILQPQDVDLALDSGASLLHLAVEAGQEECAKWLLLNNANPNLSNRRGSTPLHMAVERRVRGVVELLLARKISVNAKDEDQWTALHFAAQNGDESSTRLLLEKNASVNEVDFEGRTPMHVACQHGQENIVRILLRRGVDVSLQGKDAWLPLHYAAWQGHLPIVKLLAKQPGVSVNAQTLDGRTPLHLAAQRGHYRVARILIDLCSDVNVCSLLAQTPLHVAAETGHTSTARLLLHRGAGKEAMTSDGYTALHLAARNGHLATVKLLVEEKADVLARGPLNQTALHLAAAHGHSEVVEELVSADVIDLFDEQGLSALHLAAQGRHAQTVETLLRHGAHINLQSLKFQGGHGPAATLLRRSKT

[7] = molecular target: T7, panel of 442 kinases (Homo sapiens, UniProt Q9UK32)
T7 construct: purchased Ambit Biosciences (scanMAXX KINOMEscan)

[8] = molecular target: T8, panel of 442 kinases (Homo sapiens, UniProt P00533, L858R); settings: EGFR(L858R); for remaining activity at 1 µM: read-out: % of control at 1 µM
T8 construct: purchased Ambit Biosciences (scanMAXX KINOMEscan)

[9] = molecular target: T9, panel of 442 kinases (Homo sapiens, UniProt Q9NY57); settings: kinase YANK2; for remaining activity at 1 µM: read-out: YANK2 (% of control at 1 µM)
T9 construct: purchased Ambit Biosciences (scanMAXX KINOMEscan)
T9 sequence (Q9NY57 whole entry): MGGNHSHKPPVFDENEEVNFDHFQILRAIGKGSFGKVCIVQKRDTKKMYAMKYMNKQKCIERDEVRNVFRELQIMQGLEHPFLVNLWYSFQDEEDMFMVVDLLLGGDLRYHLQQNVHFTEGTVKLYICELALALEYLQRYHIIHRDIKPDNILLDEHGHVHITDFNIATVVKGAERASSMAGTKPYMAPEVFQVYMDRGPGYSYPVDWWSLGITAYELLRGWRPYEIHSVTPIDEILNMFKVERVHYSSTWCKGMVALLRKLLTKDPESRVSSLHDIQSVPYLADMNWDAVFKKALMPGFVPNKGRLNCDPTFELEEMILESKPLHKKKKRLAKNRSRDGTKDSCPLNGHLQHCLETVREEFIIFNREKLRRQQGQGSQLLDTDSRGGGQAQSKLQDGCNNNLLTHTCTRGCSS

[10] = molecular target: T10, panel of 442 kinases (Homo sapiens, UniProt P36507); settings: kinase MEK2; for remaining activity at 1 µM: read-out: % of control at 1 µM
T10 construct: purchased Ambit Biosciences (scanMAXX KINOMEscan)
T10 sequence (P36507 whole entry): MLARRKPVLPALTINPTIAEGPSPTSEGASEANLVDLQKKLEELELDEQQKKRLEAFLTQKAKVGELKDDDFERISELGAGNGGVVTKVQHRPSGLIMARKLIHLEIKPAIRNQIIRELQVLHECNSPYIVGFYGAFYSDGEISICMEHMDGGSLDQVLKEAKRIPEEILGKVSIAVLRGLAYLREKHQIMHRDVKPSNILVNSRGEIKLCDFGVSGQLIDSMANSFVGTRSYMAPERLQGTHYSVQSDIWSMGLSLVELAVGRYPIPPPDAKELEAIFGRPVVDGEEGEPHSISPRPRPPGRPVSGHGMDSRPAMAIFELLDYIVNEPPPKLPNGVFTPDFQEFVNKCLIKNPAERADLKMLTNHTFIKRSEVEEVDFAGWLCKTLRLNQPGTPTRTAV

[11] = molecular target: T11, panel of 442 kinases (Homo sapiens, UniProt Q52WX2); settings: kinase SBK1; for remaining activity at 1 µM: read-out: SBK1 (% of control at 1 µM)
T11 construct: purchased Ambit Biosciences (scanMAXX KINOMEscan)
T11 sequence (Q52WX2 whole entry): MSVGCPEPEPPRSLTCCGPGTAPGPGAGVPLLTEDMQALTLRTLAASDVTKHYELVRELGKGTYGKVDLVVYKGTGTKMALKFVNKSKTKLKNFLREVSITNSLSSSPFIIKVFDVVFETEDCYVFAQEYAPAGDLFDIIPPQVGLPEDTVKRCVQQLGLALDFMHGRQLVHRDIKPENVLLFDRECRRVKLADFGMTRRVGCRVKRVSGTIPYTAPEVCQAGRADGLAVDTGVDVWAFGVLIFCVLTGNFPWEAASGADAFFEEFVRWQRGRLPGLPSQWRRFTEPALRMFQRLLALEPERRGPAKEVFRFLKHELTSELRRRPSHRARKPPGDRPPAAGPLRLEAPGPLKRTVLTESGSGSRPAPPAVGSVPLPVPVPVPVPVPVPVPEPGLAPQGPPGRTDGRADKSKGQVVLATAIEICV

[12] = molecular target: T12, panel of 442 kinases (Plasmodium falciparum, UniProt P61075); settings: kinase PFPK5(P.falciparum); for remaining activity at 1 µM: read-out: % of control at 1 µM; for remaining activity at 10 µM: read-out: % of control at 10 µM
T12 construct: purchased Ambit Biosciences (scanMAXX KINOMEscan)
T12 sequence (P61075 whole entry): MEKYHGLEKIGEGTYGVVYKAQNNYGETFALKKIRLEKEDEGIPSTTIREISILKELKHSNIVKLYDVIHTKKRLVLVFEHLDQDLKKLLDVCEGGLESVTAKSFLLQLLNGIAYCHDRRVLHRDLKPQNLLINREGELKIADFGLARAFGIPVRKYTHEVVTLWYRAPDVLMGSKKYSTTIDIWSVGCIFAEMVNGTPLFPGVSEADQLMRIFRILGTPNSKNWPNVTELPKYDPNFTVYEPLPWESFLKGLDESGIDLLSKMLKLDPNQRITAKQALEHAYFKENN

[13] = molecular target: T13, panel of 442 kinases (Homo sapiens, UniProt P07949, V804M); settings: kinase RET(V804M); for remaining activity at 1 µM: read-out: RET(V804M) (% of control at 1 µM)
T13 construct: purchased Ambit Biosciences (scanMAXX KINOMEscan)
T13 sequence (P07949 29-1114 V804M): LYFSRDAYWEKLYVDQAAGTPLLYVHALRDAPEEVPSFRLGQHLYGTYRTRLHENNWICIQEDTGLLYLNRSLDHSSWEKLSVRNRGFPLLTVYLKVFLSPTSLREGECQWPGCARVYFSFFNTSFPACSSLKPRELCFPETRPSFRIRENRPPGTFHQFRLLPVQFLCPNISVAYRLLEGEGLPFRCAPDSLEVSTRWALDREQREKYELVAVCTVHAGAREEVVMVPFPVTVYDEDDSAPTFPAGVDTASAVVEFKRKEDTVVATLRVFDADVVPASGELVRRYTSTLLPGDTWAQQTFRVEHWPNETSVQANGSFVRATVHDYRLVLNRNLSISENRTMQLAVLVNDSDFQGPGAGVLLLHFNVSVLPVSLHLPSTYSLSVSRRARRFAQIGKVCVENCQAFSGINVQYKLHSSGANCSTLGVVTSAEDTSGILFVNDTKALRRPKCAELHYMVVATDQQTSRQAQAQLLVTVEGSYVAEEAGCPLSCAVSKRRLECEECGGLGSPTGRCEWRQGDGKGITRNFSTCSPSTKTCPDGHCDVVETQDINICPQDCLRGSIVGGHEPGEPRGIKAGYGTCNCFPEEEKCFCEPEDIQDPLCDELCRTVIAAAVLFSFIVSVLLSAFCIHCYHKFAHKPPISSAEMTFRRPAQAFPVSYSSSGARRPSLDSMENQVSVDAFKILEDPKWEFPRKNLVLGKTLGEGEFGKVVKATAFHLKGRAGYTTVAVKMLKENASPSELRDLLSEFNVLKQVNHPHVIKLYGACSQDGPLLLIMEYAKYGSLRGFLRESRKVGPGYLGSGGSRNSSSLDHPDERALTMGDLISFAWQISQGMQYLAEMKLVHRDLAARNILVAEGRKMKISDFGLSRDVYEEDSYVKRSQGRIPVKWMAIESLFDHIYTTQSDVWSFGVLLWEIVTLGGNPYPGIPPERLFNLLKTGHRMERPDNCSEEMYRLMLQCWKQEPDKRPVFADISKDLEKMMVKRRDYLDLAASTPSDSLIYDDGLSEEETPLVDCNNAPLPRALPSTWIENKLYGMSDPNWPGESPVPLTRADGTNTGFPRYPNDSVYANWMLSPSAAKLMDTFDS

[14] = 10 µM, read-out: % of control at 10 µM
[15] = kinase RSK4(Kin.Dom.1-N-terminal), read-out: RSK4(Kin.Dom.1-N-terminal) (% of control at 1 µM)
[16] = kinase RSK4(Kin.Dom.2-C-terminal), read-out: RSK4(Kin.Dom.2-C-terminal) (% of control at 1 µM)

T1 sequence (Q9Y243 whole entry): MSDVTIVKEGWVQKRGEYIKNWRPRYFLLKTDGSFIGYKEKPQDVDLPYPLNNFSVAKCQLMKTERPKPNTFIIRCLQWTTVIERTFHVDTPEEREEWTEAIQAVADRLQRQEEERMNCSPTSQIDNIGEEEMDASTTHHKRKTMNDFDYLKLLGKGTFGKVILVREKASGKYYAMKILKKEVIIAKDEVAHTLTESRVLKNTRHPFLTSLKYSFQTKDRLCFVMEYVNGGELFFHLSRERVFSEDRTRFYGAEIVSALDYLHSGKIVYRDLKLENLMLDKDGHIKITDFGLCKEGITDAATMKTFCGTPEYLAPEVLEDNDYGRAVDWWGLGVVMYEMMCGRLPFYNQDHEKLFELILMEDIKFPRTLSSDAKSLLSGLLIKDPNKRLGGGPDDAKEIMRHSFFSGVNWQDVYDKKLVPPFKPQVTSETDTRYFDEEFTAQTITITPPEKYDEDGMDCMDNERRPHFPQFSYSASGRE

Row | Structure (SMILES) | remaining activity at 1 µM [1] | remaining activity at 1 µM [2] | remaining activity at 1 µM [3] | remaining activity at 1 µM [4] | remaining activity at 1 µM [5] | remaining activity at 1 µM [6] | remaining activity at 1 µM [7, 15] | remaining activity at 1 µM [7, 16] | remaining activity at 1 µM [8] | remaining activity at 1 µM [9] | remaining activity at 1 µM [10] | remaining activity at 1 µM [11] | remaining activity at 1 µM [12] | remaining activity at 10 µM [12] | remaining activity at 1 µM [13] | also measured
1 | Nc1cc(C(F)(F)F)c(-c2cc(N3CCOCC3)nc(N3CCOCC3)n2)cn1 [Buparlisib] | 84% | 84% | 91% | 100% | 92% | 82% | 99% | 100% | 100% | 100% | 100% | 94% | 100% | 100% | 97% | remaining activity at 10 µM [1, 14]: 92%; remaining activity at 10 µM [2, 14]: 100%; remaining activity at 10 µM ([3]; 10 µM, read-out: SgK110 (% of control at 10 µM)): 100%; remaining activity at 10 µM [4, 14]: 100%; remaining activity at 10 µM [5, 14]: 99%; remaining activity at 10 µM ([6]; 10 µM, read-out: RIPK4 (% of control at 10 µM)): 88%; remaining activity at 10 µM ([7]; kinase RSK4(Kin.Dom.1-N-terminal), read-out: RSK4(Kin.Dom.1-N-terminal) (% of control at 10 µM)): 100%; remaining activity at 10 µM ([7]; kinase RSK4(Kin.Dom.2-C-terminal), read-out: RSK4(Kin.Dom.2-C-terminal) (% of control at 10 µM)): 100%; remaining activity at 10 µM [8, 14]: 100%; remaining activity at 10 µM ([9]; 10 µM, read-out: YANK2 (% of control at 10 µM)): 100%; remaining activity at 10 µM [10, 14]: 100%; remaining activity at 10 µM ([11]; 10 µM, read-out: SBK1 (% of control at 10 µM)): 100%; remaining activity at 10 µM ([13]; 10 µM, read-out: RET(V804M) (% of control at 10 µM)): 100%
2 | Cn1c(=O)n(-c2ccc(C(C)(C)C#N)cc2)c2c3cc(-c4cnc5ccccc5c4)ccc3ncc21 [Dactolisib, 2-methyl-2-[4-(3-methyl-2-oxo-8-quinolin-3-yl-2,3-dihydroimidazo[4,5-c]quinolin-1-yl)-phenyl] propionitrile] | 84% | 94% | 100% | 79% | 86% | 57% | 71% | 82% |  | 96% | 73% | 92% | 100% |  |  | 
3 | COc1ncc(-c2ccc3nccc(-c4ccnnc4)c3c2)cc1NS(=O)(=O)c1ccc(F)cc1F [Omipalisib] | 100% | 100% | 100% | 100% | 100% | 70% | 88% | 79% | 83% | 100% | 99% | 100% | 100% |  | 90% | 
4 | CS(=O)(=O)N1CCN(Cc2cc3nc(-c4cccc5[nH]ncc45)nc(N4CCOCC4)c3s2)CC1 [Pictilisib, 2-(1H-indazol-4-yl)-6-(4-methanesulfonyl-piperazin-1-ylmethyl)-4-morpholin-4-yl-t hieno[3,2-d]pyrimidine] |  |  |  |  |  |  |  |  |  |  |  |  | 92% | 100% |  | 
5 | FC(F)c1nc2ccccc2n1-c1nc(N2CCOCC2)nc(N2CCOCC2)n1 [ZSTK474, 2-(difluoromethyl)-1-[4,6-di(4-morpholinyl)-1,3,5-triazin-2-yl]-1H-benzimidazole] | 66% | 100% | 100% | 88% | 99% | 77% | 81% | 91% | 100% | 100% | 97% | 100% | 100% |  | 100% | 
